Experimental data as given in the NIST ThermoML archive (doi:10.1016/j.jct.2005.03.019).
± gives the expanded uncertainty stated by the source.

Assay: xn = mol fraction of the nth substance listed
Details: 101 kPa, Liquid, Vibrating tube method

## CC1COC(=O)O1 (configuration not stated) [4-methyl-1,3-dioxolan-2-one] + CCc1ccccc1
293.15 K, x2 = 0
  mass density: 1200.3 ± 0.1 kg/m3
293.15 K, x2 = 0.0592
  mass density: 1173.5 ± 0.1 kg/m3
293.15 K, x2 = 0.1139
  mass density: 1149.9 ± 0.1 kg/m3
293.15 K, x2 = 0.1749
  mass density: 1124.6 ± 0.1 kg/m3
293.15 K, x2 = 0.2471
  mass density: 1096.1 ± 0.2 kg/m3
293.15 K, x2 = 0.3274
  mass density: 1066.1 ± 0.2 kg/m3
293.15 K, x2 = 0.3856
  mass density: 1045.5 ± 0.2 kg/m3
293.15 K, x2 = 0.4527
  mass density: 1022.7 ± 0.2 kg/m3
293.15 K, x2 = 0.5049
  mass density: 1005.6 ± 0.2 kg/m3
293.15 K, x2 = 0.5672
  mass density: 986.1 ± 0.2 kg/m3
293.15 K, x2 = 0.6368
  mass density: 965.1 ± 0.2 kg/m3
293.15 K, x2 = 0.6978
  mass density: 947.4 ± 0.2 kg/m3
293.15 K, x2 = 0.7529
  mass density: 932 ± 0.2 kg/m3
293.15 K, x2 = 0.8149
  mass density: 915.2 ± 0.2 kg/m3
293.15 K, x2 = 0.8742
  mass density: 899.6 ± 0.2 kg/m3
293.15 K, x2 = 0.9368
  mass density: 883.5 ± 0.2 kg/m3
303.15 K, x2 = 0
  mass density: 1180.6 ± 0.1 kg/m3
303.15 K, x2 = 0.0489
  mass density: 1159.1 ± 0.1 kg/m3
303.15 K, x2 = 0.1278
  mass density: 1126.2 ± 0.1 kg/m3
303.15 K, x2 = 0.1974
  mass density: 1098.6 ± 0.1 kg/m3
303.15 K, x2 = 0.2484
  mass density: 1079.4 ± 0.2 kg/m3
303.15 K, x2 = 0.3149
  mass density: 1055.2 ± 0.2 kg/m3
303.15 K, x2 = 0.3759
  mass density: 1034.1 ± 0.2 kg/m3
303.15 K, x2 = 0.4349
  mass density: 1014.5 ± 0.2 kg/m3
303.15 K, x2 = 0.4876
  mass density: 997.7 ± 0.2 kg/m3
303.15 K, x2 = 0.5498
  mass density: 978.5 ± 0.2 kg/m3
303.15 K, x2 = 0.5922
  mass density: 965.9 ± 0.2 kg/m3
303.15 K, x2 = 0.659
  mass density: 946.7 ± 0.2 kg/m3
303.15 K, x2 = 0.7249
  mass density: 928.4 ± 0.2 kg/m3
303.15 K, x2 = 0.7941
  mass density: 910 ± 0.2 kg/m3
303.15 K, x2 = 0.8578
  mass density: 893.5 ± 0.2 kg/m3
303.15 K, x2 = 0.9247
  mass density: 876.8 ± 0.2 kg/m3
313.15 K, x2 = 0
  mass density: 1161.3 ± 0.1 kg/m3
313.15 K, x2 = 0.0662
  mass density: 1133.7 ± 0.1 kg/m3
313.15 K, x2 = 0.1258
  mass density: 1110 ± 0.1 kg/m3
313.15 K, x2 = 0.1835
  mass density: 1088 ± 0.1 kg/m3
313.15 K, x2 = 0.2458
  mass density: 1065.3 ± 0.1 kg/m3
313.15 K, x2 = 0.3342
  mass density: 1034.7 ± 0.2 kg/m3
313.15 K, x2 = 0.3958
  mass density: 1014.5 ± 0.2 kg/m3
313.15 K, x2 = 0.4592
  mass density: 994.6 ± 0.2 kg/m3
313.15 K, x2 = 0.5135
  mass density: 978.2 ± 0.2 kg/m3
313.15 K, x2 = 0.5629
  mass density: 963.7 ± 0.2 kg/m3
313.15 K, x2 = 0.6248
  mass density: 946.2 ± 0.2 kg/m3
313.15 K, x2 = 0.6724
  mass density: 933.2 ± 0.2 kg/m3
313.15 K, x2 = 0.7383
  mass density: 915.7 ± 0.2 kg/m3
313.15 K, x2 = 0.7873
  mass density: 903.2 ± 0.2 kg/m3
313.15 K, x2 = 0.8534
  mass density: 886.7 ± 0.2 kg/m3
313.15 K, x2 = 0.9378
  mass density: 866.4 ± 0.2 kg/m3
323.15 K, x2 = 0
  mass density: 1142.4 ± 0.1 kg/m3
323.15 K, x2 = 0.0635
  mass density: 1117.4 ± 0.1 kg/m3
323.15 K, x2 = 0.1139
  mass density: 1098.3 ± 0.1 kg/m3
323.15 K, x2 = 0.1729
  mass density: 1076.8 ± 0.1 kg/m3
323.15 K, x2 = 0.2384
  mass density: 1054 ± 0.1 kg/m3
323.15 K, x2 = 0.3248
  mass density: 1025.4 ± 0.1 kg/m3
323.15 K, x2 = 0.3859
  mass density: 1006.2 ± 0.2 kg/m3
323.15 K, x2 = 0.4523
  mass density: 986.2 ± 0.2 kg/m3
323.15 K, x2 = 0.5048
  mass density: 971 ± 0.2 kg/m3
323.15 K, x2 = 0.5733
  mass density: 951.9 ± 0.2 kg/m3
323.15 K, x2 = 0.6387
  mass density: 934.4 ± 0.2 kg/m3
323.15 K, x2 = 0.7038
  mass density: 917.6 ± 0.2 kg/m3
323.15 K, x2 = 0.7587
  mass density: 903.8 ± 0.2 kg/m3
323.15 K, x2 = 0.8137
  mass density: 890.5 ± 0.2 kg/m3
323.15 K, x2 = 0.8698
  mass density: 877.2 ± 0.2 kg/m3
323.15 K, x2 = 0.9247
  mass density: 864.5 ± 0.2 kg/m3
333.15 K, x2 = 0
  mass density: 1124 ± 0.1 kg/m3
333.15 K, x2 = 0.0587
  mass density: 1102.4 ± 0.1 kg/m3
333.15 K, x2 = 0.1328
  mass density: 1076.2 ± 0.1 kg/m3
333.15 K, x2 = 0.1849
  mass density: 1058.6 ± 0.1 kg/m3
333.15 K, x2 = 0.2489
  mass density: 1037.9 ± 0.1 kg/m3
333.15 K, x2 = 0.3186
  mass density: 1016.2 ± 0.1 kg/m3
333.15 K, x2 = 0.3767
  mass density: 998.9 ± 0.1 kg/m3
333.15 K, x2 = 0.435
  mass density: 982.2 ± 0.2 kg/m3
333.15 K, x2 = 0.4957
  mass density: 965.5 ± 0.2 kg/m3
333.15 K, x2 = 0.5549
  mass density: 949.7 ± 0.2 kg/m3
333.15 K, x2 = 0.6247
  mass density: 931.8 ± 0.2 kg/m3
333.15 K, x2 = 0.6978
  mass density: 913.8 ± 0.2 kg/m3
333.15 K, x2 = 0.7629
  mass density: 898.4 ± 0.2 kg/m3
333.15 K, x2 = 0.8247
  mass density: 884.2 ± 0.2 kg/m3
333.15 K, x2 = 0.8624
  mass density: 875.7 ± 0.2 kg/m3
333.15 K, x2 = 0.9358
  mass density: 859.5 ± 0.2 kg/m3
343.15 K, x2 = 0
  mass density: 1106 ± 0.1 kg/m3
343.15 K, x2 = 0.0524
  mass density: 1088.2 ± 0.1 kg/m3
343.15 K, x2 = 0.1125
  mass density: 1068.5 ± 0.1 kg/m3
343.15 K, x2 = 0.1828
  mass density: 1046.3 ± 0.1 kg/m3
343.15 K, x2 = 0.2398
  mass density: 1029.1 ± 0.1 kg/m3
343.15 K, x2 = 0.3049
  mass density: 1010.2 ± 0.1 kg/m3
343.15 K, x2 = 0.3673
  mass density: 992.8 ± 0.1 kg/m3
343.15 K, x2 = 0.4348
  mass density: 974.7 ± 0.2 kg/m3
343.15 K, x2 = 0.4817
  mass density: 962.6 ± 0.2 kg/m3
343.15 K, x2 = 0.5428
  mass density: 947.3 ± 0.2 kg/m3
343.15 K, x2 = 0.6048
  mass density: 932.3 ± 0.2 kg/m3
343.15 K, x2 = 0.6721
  mass density: 916.5 ± 0.2 kg/m3
343.15 K, x2 = 0.7498
  mass density: 899 ± 0.2 kg/m3
343.15 K, x2 = 0.8247
  mass density: 882.7 ± 0.2 kg/m3
343.15 K, x2 = 0.8827
  mass density: 870.5 ± 0.2 kg/m3
343.15 K, x2 = 0.9478
  mass density: 857 ± 0.2 kg/m3
353.15 K, x2 = 0
  mass density: 1088.4 ± 0.1 kg/m3
353.15 K, x2 = 0.0629
  mass density: 1069.2 ± 0.1 kg/m3
353.15 K, x2 = 0.1272
  mass density: 1050.2 ± 0.1 kg/m3
353.15 K, x2 = 0.1947
  mass density: 1031 ± 0.1 kg/m3
353.15 K, x2 = 0.2598
  mass density: 1013.3 ± 0.1 kg/m3
353.15 K, x2 = 0.3138
  mass density: 999 ± 0.1 kg/m3
353.15 K, x2 = 0.3945
  mass density: 978.6 ± 0.1 kg/m3
353.15 K, x2 = 0.4629
  mass density: 962 ± 0.2 kg/m3
353.15 K, x2 = 0.5148
  mass density: 949.8 ± 0.2 kg/m3
353.15 K, x2 = 0.5749
  mass density: 936.1 ± 0.2 kg/m3
353.15 K, x2 = 0.6345
  mass density: 923 ± 0.2 kg/m3
353.15 K, x2 = 0.7039
  mass density: 908.2 ± 0.2 kg/m3
353.15 K, x2 = 0.7635
  mass density: 895.8 ± 0.2 kg/m3
353.15 K, x2 = 0.8137
  mass density: 885.7 ± 0.2 kg/m3
353.15 K, x2 = 0.8642
  mass density: 875.7 ± 0.2 kg/m3
353.15 K, x2 = 0.9248
  mass density: 863.9 ± 0.2 kg/m3
